The text below walks through data of US20090170947A1, “DISINFECTANT COMPOSITIONS, METHODS AND SYSTEMS” (priority 2007, published 2009).

Counter-ions that a name gives are not always drawn.

For series [1] the following is noted: humans; doses of up to 3000 mg infused over 3 hours, daily; cited from earlier work.
The test system of series [2] is S. aureus. Description: Checkerboard Titration, S. aureus. The format is cell-based, Staphylococcus aureus. The following applies: PHMB with EDTA(Na4). As to the method:
The following concentrations were tested: Fraction Inhibitory Concentration (FIC) is defined as the MIC of the compound in combination divided by the MIC of the compound alone. […] In order to calculate the FIC index the following calculations are performed for compounds A and B: • FIC-A=(MIC of A in combination)/(MIC of A alone) • FIC-B=(MIC of B in combination)/(MIC of […]

Series [3] deals with blood coagulation (clotting). Description: Prothrombin Time (PT) Assay. The format is biochemical. The following applies: concentration of TEDTA of 4 wt %; ISI 1.89. Here is the method:
Experiments were conducted to assess the anticoagulant capacities of PHMB, EDTA and combinations of PHMB and EDTA via a Prothrombin Time (PT) Assay. A PT assay (TM-4339-063) was conducted using a Coagulation Analyzer to obtain PT instead of manually recording the PT. Tetrasodium […]) was used (Alfa Aesar, Catalog #A17385, Lot #J9570A). […] […] […] INR is calculated as: INR=([…] sample/PTnormal control)^ISI ISI (International Sensitivity Index) indicates the sensitivity of individual thromboplastin. […] All the PTs greater than 3×the […] 1 (normal control) were replaced with 32 seconds.

Series [4] has as its system P. aeruginosa. In words: Checkerboard Titration, P. aeruginosa. The format is cell-based, Pseudomonas aeruginosa. To be noted: PHMB with EDTA(Na4).
Protocol: (§3) The method used was a NCCLS micro-dilution procedure
(§4) Fraction Inhibitory Concentration (FIC) is defined as the MIC of the compound in combination divided by the MIC of the compound alone. If the FIC index is <0.5, the combination is interpreted to be synergistic; <1 but >0.5—as partially synergistic; =1 as additive; >1 but <4 as indifferent; and ≧4 as antagonistic. In order to calculate the FIC index the following calculations are performed for compounds A and B: • FIC-A=(MIC of A in combination)/(MIC of A alone) • FIC-B=(MIC of B in combination)/(MIC of B alone) • FIC-combination=FIC-A+FIC-B
For series [5], the system named is C. albicans. In words: Checkerboard Titration, C. albicans. The series is classed as cell-based, Candida albicans. To be noted: PHMB with EDTA(Na4).
Protocol: as §3, §4
The subject of series [6] is Staphylococcus aureus (Organism #25923). Description: MIC/MBC micro-dilution at pH 7, S. aureus. The series is classed as cell-based. To be noted: pH of 7. Here is the method:
(§1) In order to determine MIC (minimum inhibitory concentration) and MBC (minimum bactericidal concentration) a National Committee on Clinical Laboratory Standards (NCCLS) micro-dilution procedure was followed. According to the procedure each formulation must be exposed to 6 log concentration of organism or the highest achievable concentration. In the current protocol 100 μL of MHB was mixed with 90 μL of formulation and 10 μL of log 8 organism or the highest achievable concentration. The concentration of the formulation was adjusted to obtain the required concentration in the final solution. The mixture was incubated at 37 degree C. for 16-24 hrs. After 16-24 hours the absorbance value was read at 600 nm. The obtained data was corrected by subtracting the appropriate blanks. Finally, the wells having an absorbance >0.1 were marked + and <0.1 were marked −. The +symbol indicated growth while −symbol indicates no growth.
(§2) Staphylococcus aureus (Organism #25923), Pseudomonas aeruginosa (Organism #27853), and Candida Albicans (Organism #10231) was obtained from ATCC. […] These solutions were then serially diluted as necessary to obtain the required concentrations.
On the technique in general: Dilution methods test growth across graded concentrations, often in twofold steps.

The subject of series [7] is Candida Albicans (Organism #10231). In words: MIC/MBC micro-dilution at pH 7, C. albicans. The format is cell-based. The following applies: pH of 7. Here is the method: as §1, §2
Series [8] concerns Pseudomonas aeruginosa (Organism #27853). Description: MIC/MBC micro-dilution at pH 7, P. aeruginosa. To be noted: pH of 7. The series is classed as cell-based. As to the method: as §1, §2
For series [9] the following is noted: rabbit, in vivo; cited from earlier work.

On to `O=C([O-])CN(CCN(CC(=O)[O-])CC(=O)O)CC(=O)O.[Na+].[Na+]` [EDTA disodium], for which the Tolerability result in [1] is on record as “well tolerated”.
Regarding `O=C([O-])CN(CCN(CC(=O)[O-])CC(=O)[O-])CC(=O)[O-].[Na+].[Na+].[Na+].[Na+]` [EDTA(Na4), EDTA, tetrasodium salt hydrate], the “FIC of the single component (MIC in combination / MIC alone)” value is given as 0.4 in [2], 0.25 in series [4] and 0.3 in [5]. For the same compound, the “International Normalized Ratio (INR)” value in [3] is reported as “greater than 7.25”.
Regarding `O=C(O)CN(CCN(CC(=O)O)CC(=O)O)CC(=O)O` [EDTA, EDTA, tetrasodium salt hydrate], the MBC in series [6] was less than 0.13 wt %; in series [8], less than 4.00 wt %. Also, the values for the MIC in series [6], in [7] and in series [8] were less than 0.03 wt %, more than 4.0 wt % and less than 0.25 wt %, respectively.
Take Poly(hexamethylenebiguanide) [PHMB]: in series [9], the NOAEL entry was “NOAEL = 20 mg/kg/day”.
